Test results from publication PMC8962522, “Direct interaction of TrkA/CD44v3 is essential for NGF-promoted aggressiveness of breast cancer cells” (Journal of Experimental & Clinical Cancer Research : CR, 2022).

Tests used:
[1] = test system: TrkA/CD44v3 complex in HCC-1954 cells; assay: PLA TrkA/CD44v3 complex formation in HCC-1954 cells; type: cell-based; conditions: Her2-like; NGF 100 ng/ml
Protocol: Cells (10,000 cells per well) were grown on acid-washed eight-well glass slides (Thermo Scientific) in the appropriate medium supplemented with 10% FBS for 24 h. After NGF treatment, paraformaldehyde (PAF)-fixed cells were incubated with 4% bovine serum albumin (BSA) or 5% FBS (for 1 h at 20 °C), followed by overnight incubation with primary antibodies (rabbit anti-TrkA or rabbit anti-IgG + mouse anti-pan-CD44; mouse anti-CD44v3; mouse anti-CD44v6; mouse anti-IgG2a; mouse anti-IgG2b; or mouse anti-IgG1). PLA was performed following the manufacturer’s instructions in the assay kit (Duolink PLA; Sigma–Aldrich). To obtain the correct representation of the PLA signal for each condition, 30 fields per condition were observed using a fluorescence microscope (Eclipse TiU; Nikon, Japan). The PLA signals (red dots) were automatically quantified using ImageJ software (with an in-house-developed plug-in). […]
Fig. 7 The TrkA/CD44v3 complex is formed in PR-negative breast cancer cells and tumors. TrkA/CD44v3 complex formation was measured in SUM159-PT (triple negative—i.e., ERα-, PR-, and Her2-) cells (A), T47-D (luminal A—i.e., ERα+, PR+, and Her2-) cells (B), BT-474 (luminal B—ERα+, PR+, and Her2+) cells (C), HCC-1954 (Her2-like—ERα-, PR-, and Her2+) cells (D), and 150 tumor patient samples obtained from US BioMax (HBre-Duc150Sur01) (E, F) using the proximity ligation assay (PLA). […]

TrkA = assay: nanoDSF peptide binding to TrkA; conditions: nanoscale differential scanning fluorimetry, Supplementary Fig. 6A & B
Protocol: To block the TrkA-CD44v3 association, 4 mimetic peptides of CD44v3 were designed corresponding to zone 1 [(K) STSSNTISAG], zone 2 (WEPNEENEDE), zone 3 (RDRHLSFSGSG) and zone 4 (IDDDEDFISST) (Fig. 2F & G). The binding capacities of the CD44v3 mimetic peptides to TrkA were then measured by MST (Fig. 2H). […] To confirm mimetic peptide 4 binding, we assessed its ability to bind TrkA using nanoscale differential scanning fluorimetry (nanoDSF; Supplementary Fig. 6A & B).
Supplementary file 13046_2022_2314_MOESM3_ESM.pdf: Additional file 3: Supplementary Figure 1. Validation of the ectopic expression of CD44 and/or TrkA in COS-7 cells. The expression of all CD44 isoforms (A), CD44 variant 3 (B), CD44 variant 6 (C) and TrkA ([…]; D) was evaluated by RT–qPCR (normalized using PUM-1). No expression of CD44, CD44 variants [3 or 6] or TrkA was detected in COS-7 cells (A-D) compared with that in cells transfected with the expression plasmid carrying each protein. […] Quantification of the PLA results was performed using ImageJ software (30 randomly chosen fields per condition of three different experiments). […] CD44v3 and CD44v6 levels at the plasma membrane were assessed by flow cytometry (A-D). The plasma membrane and total TrkA and CD44v3 levels were also quantified by confocal microscopy (E-H). […] The CD44v3/NGF interaction was evaluated using microscale thermophoresis (MST). […]

SUM-159-PT cells = assay: Clonogenicity assay, SUM-159-PT; type: cell-based; conditions: Supplementary Fig. 9 A & B (P4; same observations = colony forming units reduced as in MDA-MB-231), Supplementary Fig. 10 B (siCD44v3)

Substance | effect on TrkA/CD44v3 complex formation (PLA) in HCC-1954 cells [1] | binding to TrkA by nanoDSF (in words) (TrkA) | binding to TrkA by nanoDSF (in words) (TrkA; listed as P4) | effect on clonogenic growth of SUM-159-PT cells (SUM-159-PT cells)
NGF: recombinant human β-NGF (Alomone Labs, Israel) | NGF induction of CD44v3/TrkA complex formation was observed in SUM-159PT (TN) and HCC-1954 (Her2) cells |  |  | 
IDDDEDFISST [Peptide 4, mimetic peptide 4 (…) corresponding to the C-terminal region of CD44v3] |  | bound TrkA | binds to TrkA | The same observations were made in SUM-159PT
